Columns and labels:
SMARCA4 = target: T1, SMARCA4 (Homo sapiens, UniProt P51532); experiment: SMARCA4 HiBiT degradation assay in HeLa cells; format: cell-based; conditions: 18 hours; for Dmax: HeLa
T1 construct: SMARCA4-HiBiT knock-in Hela monoclonal cell (CS3023226) were purchased from Promega; host or cells: HeLa (CRISPR HiBiT knock-in monoclonal line, heterozygous)
Procedure, shortened: (§1)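 Degradation measured as HiBiT luminescence (Nano-Glo lytic reagent) after 18 h compound exposure at 37° C. Cells were HeLa clones carrying heterozygous HiBiT tags on SMARCA2 or SMARCA4, 2500 per well; compounds at 3-fold serial dilution from 10 μM.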

SMARCA2 = target: T2, SMARCA2 (Homo sapiens, UniProt P51531); experiment: SMARCA2 HiBiT degradation assay in HeLa cells; format: cell-based; conditions: 18 hours; for DC50: read-out: SMARCA2 IC50; for Dmax: HeLa
T2 construct: SMARCA2-HiBiT knock-in Hela monoclonal cell (CS302366); host or cells: HeLa (CRISPR HiBiT knock-in monoclonal line, heterozygous)
Procedure, shortened: as §1

T2 sequence (P51531 whole entry): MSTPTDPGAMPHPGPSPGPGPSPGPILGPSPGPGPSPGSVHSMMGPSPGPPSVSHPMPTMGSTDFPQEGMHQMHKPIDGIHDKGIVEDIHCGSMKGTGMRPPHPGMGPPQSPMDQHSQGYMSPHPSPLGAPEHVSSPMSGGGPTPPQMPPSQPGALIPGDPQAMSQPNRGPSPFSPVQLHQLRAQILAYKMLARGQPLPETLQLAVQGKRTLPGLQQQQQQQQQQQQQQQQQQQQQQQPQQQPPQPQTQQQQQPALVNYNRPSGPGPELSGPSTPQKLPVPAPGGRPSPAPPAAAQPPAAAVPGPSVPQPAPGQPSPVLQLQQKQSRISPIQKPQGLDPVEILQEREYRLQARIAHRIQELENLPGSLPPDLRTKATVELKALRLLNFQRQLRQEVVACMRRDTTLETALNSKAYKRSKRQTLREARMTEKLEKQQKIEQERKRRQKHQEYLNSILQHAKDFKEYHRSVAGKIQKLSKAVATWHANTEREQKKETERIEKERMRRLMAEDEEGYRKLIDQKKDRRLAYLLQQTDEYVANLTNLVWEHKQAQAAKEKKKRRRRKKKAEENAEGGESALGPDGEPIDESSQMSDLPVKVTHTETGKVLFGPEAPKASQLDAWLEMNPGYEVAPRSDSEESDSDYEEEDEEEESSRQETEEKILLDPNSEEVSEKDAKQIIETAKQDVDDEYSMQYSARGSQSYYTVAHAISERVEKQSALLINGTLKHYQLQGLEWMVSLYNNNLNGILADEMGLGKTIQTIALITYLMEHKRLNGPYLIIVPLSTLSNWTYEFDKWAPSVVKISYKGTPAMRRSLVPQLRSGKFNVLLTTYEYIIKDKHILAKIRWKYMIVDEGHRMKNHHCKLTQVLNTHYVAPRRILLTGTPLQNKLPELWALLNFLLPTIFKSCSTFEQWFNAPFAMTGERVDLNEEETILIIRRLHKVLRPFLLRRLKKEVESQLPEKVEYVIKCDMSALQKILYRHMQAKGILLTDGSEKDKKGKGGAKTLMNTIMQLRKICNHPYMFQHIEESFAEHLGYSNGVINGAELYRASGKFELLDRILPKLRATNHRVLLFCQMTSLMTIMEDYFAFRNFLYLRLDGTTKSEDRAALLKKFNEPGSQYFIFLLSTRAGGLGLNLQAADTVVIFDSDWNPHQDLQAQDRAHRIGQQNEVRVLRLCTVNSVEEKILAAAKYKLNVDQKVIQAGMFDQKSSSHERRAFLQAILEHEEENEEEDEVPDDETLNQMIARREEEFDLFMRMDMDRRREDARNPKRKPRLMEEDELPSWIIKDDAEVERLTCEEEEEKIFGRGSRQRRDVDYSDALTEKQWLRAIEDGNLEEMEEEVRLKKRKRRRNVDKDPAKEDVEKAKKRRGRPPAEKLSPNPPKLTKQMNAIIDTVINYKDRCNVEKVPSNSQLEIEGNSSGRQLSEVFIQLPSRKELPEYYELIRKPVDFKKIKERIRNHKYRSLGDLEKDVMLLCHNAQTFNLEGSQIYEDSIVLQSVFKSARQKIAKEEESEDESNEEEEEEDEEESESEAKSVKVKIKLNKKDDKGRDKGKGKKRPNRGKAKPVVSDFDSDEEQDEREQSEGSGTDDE
T1 sequence (P51532 whole entry): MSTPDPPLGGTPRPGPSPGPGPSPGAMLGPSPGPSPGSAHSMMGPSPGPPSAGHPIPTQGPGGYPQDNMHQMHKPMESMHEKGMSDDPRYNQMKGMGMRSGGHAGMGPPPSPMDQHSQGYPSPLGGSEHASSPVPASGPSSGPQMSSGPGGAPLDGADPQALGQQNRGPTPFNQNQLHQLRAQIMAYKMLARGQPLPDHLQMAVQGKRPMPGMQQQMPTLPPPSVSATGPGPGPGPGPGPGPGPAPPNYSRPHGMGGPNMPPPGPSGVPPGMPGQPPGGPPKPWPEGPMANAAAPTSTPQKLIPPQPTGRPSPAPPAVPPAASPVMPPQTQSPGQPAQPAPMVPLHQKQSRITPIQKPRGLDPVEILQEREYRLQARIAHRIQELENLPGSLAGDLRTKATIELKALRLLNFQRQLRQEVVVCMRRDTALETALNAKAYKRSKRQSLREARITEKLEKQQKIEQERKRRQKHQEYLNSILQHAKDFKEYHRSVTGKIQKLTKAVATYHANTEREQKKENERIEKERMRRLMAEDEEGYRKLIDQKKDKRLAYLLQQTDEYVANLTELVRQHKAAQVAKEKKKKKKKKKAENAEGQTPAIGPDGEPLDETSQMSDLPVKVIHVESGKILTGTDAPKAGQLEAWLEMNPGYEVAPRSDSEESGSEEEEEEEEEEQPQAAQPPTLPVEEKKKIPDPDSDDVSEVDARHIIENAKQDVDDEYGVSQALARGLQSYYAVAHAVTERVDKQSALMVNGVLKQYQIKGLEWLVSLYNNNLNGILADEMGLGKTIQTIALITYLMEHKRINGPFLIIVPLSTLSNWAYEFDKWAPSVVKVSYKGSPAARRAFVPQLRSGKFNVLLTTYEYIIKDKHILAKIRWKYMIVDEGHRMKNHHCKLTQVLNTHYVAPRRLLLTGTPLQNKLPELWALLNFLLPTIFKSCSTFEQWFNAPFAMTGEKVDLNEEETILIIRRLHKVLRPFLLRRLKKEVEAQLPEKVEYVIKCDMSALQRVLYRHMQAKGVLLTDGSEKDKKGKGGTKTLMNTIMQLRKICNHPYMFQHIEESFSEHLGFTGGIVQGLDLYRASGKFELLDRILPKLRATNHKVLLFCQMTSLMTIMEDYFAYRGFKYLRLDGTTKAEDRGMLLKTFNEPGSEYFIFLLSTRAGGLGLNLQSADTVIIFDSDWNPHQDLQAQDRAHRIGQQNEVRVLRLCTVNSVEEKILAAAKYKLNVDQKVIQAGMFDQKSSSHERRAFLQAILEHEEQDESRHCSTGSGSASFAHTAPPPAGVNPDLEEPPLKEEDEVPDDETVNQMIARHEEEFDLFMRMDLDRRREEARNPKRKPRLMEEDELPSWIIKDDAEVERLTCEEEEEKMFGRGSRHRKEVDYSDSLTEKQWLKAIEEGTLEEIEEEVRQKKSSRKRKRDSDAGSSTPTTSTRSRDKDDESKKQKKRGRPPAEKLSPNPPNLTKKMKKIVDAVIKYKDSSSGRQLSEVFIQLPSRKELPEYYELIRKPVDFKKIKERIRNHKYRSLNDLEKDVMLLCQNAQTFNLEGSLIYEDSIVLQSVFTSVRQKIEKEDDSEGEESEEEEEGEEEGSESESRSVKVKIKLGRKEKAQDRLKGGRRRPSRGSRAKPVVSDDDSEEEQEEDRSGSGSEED

| DC50 (SMARCA4) [nM] | Dmax (SMARCA4) [%] | DC50 (SMARCA2) [nM] | Dmax (SMARCA2) [%] | Dmax (SMARCA4; given as a number) [%] | Structure (SMILES) |
| --- | --- | --- | --- | --- | --- |
| < 100 | < 50 | < 100 | > 75 | – | C[C@@H]1CN(CC2CCN(c3ccc4c(c3)C(=O)N([C@@H]3CCC(=O)NC3=O)C4)CC2)C[C@H](C)N1C(=O)N1CCN2c3cc(-c4cc(F)cc(F)c4O)nnc3NC[C@H]2C1 [Example 16, (R)-3-(6-(4-(((3S,5R)-4-((S)-2-(3,5-difluoro-2-hydroxyphenyl)-6,6a,7,8,9,10-hexahydro-5H-pyrazino[1′,2′:4,5]pyrazino[2,3-c]pyridazine-8-carbonyl)-3,5-dimethylpiperazin-1-yl)methyl)piperidin-1-yl)-1-oxoisoindolin-2-yl)piperidine-2,6-dione] |
| < 100 | 50 to 75 | < 100 | > 75 | – | C[C@@H]1CN(CC2CCN(c3ccc4c(c3)C(=O)N([C@H]3CCC(=O)NC3=O)C4)CC2)C[C@H](C)N1C(=O)N1CCN2c3cc(-c4cc(F)cc(F)c4O)nnc3NC[C@H]2C1 [Example 17, (S)-3-(6-(4-(((3S,5R)-4-((S)-2-(3,5-difluoro-2-hydroxyphenyl)-6,6a,7,8,9,10-hexahydro-5H-pyrazino[1′,2′:4,5]pyrazino[2,3-c]pyridazine-8-carbonyl)-3,5-dimethylpiperazin-1-yl)methyl)piperidin-1-yl)-1-oxoisoindolin-2-yl)piperidine-2,6-dione] |
| < 100 | < 50 | < 100 | > 75 | – | C[C@@H]1CN(CC2CN(c3ccc4c(c3)C(=O)N(C3CCC(=O)NC3=O)C4)C2)C[C@H](C)N1C(=O)N1CCN2c3cc(-c4cc(F)cc(F)c4O)nnc3NC[C@H]2C1 (stereo partly drawn) [Example 20, 3-(6-(3-(((3R,5S)-4-((S)-2-(3,5-difluoro-2-hydroxyphenyl)-6,6a,7,8,9,10-hexahydro-5H-pyrazino[1′,2′:4,5]pyrazino[2,3-c]pyridazine-8-carbonyl)-3,5-dimethylpiperazin-1-yl)methyl)azetidin-1-yl)-1-oxoisoindolin-2-yl)piperidine-2,6-dione] |
| < 100 | < 50 | < 100 | > 75 | – | C[C@@H]1CN(C[C@H]2CN(c3ccc4c(c3)CN(C3CCC(=O)NC3=O)C4=O)CCO2)C[C@H](C)N1C(=O)N1CCN2c3cc(-c4cc(F)cc(F)c4O)nnc3NC[C@H]2C1 (stereo partly drawn) [Example 21, 3-(5-((S)-2-(((3R,5S)-4-((S)-2-(3,5-difluoro-2-hydroxyphenyl)-6,6a,7,8,9,10-hexahydro-5H-pyrazino[1′,2′:4,5]pyrazino[2,3-c]pyridazine-8-carbonyl)-3,5-dimethylpiperazin-1-yl)methyl)morpholino)-1-oxoisoindolin-2-yl)piperidine-2,6-dione] |
| < 100 | > 75 | < 100 | > 75 | – | C[C@@H]1CN(CC2CCN(c3ccc4c(c3)C(=O)N(C3CCC(=O)NC3=O)C4)CC2)C[C@H](C)N1C(=O)N1CCN2c3cc(-c4cc(F)cc(F)c4O)nnc3NCC2(C)C1 (stereo partly drawn) [Example 26, 3-(6-(4-(((3S,5R)-4-(2-(3,5-difluoro-2-hydroxyphenyl)-6a-methyl-6,6a,7,8,9,10-hexahydro-5H-pyrazino[1′,2′:4,5]pyrazino[2,3-c]pyridazine-8-carbonyl)-3,5-dimethylpiperazin-1-yl)methyl)piperidin-1-yl)-1-oxoisoindolin-2-yl)piperidine-2,6-dione] |
| < 100 | > 75 | < 100 | > 75 | – | C[C@@H]1CN(CC2CCN(c3ccc4c(c3)C(=O)N(C3CCC(=O)NC3=O)C4)CC2)C[C@@H](C)N1C(=O)N1CCN2c3cc(-c4cc(F)cc(F)c4O)nnc3NCC2(C)C1 (stereo partly drawn) [Example 33, 3-(6-(4-(((3R,5R)-4-(2-(3,5-difluoro-2-hydroxyphenyl)-6a-methyl-6,6a,7,8,9,10-hexahydro-5H-pyrazino[1′,2′:4,5]pyrazino[2,3-c]pyridazine-8-carbonyl)-3,5-dimethylpiperazin-1-yl)methyl)piperidin-1-yl)-1-oxoisoindolin-2-yl)piperidine-2,6-dione] |
| < 100 | < 50 | < 100 | > 75 | – | C[C@@H]1CN(CC2CCN(c3ccc4c(c3)C(=O)N(C3CCC(=O)NC3=O)C4)CC2)C[C@@H](C)N1C(=O)N1CCN2c3cc(-c4cc(F)cc(F)c4O)nnc3NC[C@H]2C1 (stereo partly drawn) [Example 45, 3-(6-(4-(((3R,5R)-4-((S)-2-(3,5-difluoro-2-hydroxyphenyl)-6,6a,7,8,9,10-hexahydro-5H-pyrazino[1′,2′:4,5]pyrazino[2,3-c]pyridazine-8-carbonyl)-3,5-dimethylpiperazin-1-yl)methyl)piperidin-1-yl)-1-oxoisoindolin-2-yl)piperidine-2,6-dione] |

Continued, compound first:

| Structure (SMILES) | DC50 (SMARCA4) [nM] | Dmax (SMARCA4) [%] | DC50 (SMARCA2) [nM] | Dmax (SMARCA2) [%] | Dmax (SMARCA4; given as a number) [%] |
| --- | --- | --- | --- | --- | --- |
| CC1(C)CN(CC2CCN(c3ccc4c(c3)C(=O)N([C@H]3CCC(=O)NC3=O)C4)CC2)CCN1C(=O)N1CCN2c3cc(-c4cc(F)cc(F)c4O)nnc3NC[C@H]2C1 [Example 19, (S)-3-(6-(4-((4-((S)-2-(3,5-difluoro-2-hydroxyphenyl)-6,6a,7,8,9,10-hexahydro-5H-pyrazino[1′,2′:4,5]pyrazino[2,3-c]pyridazine-8-carbonyl)-3,3-dimethylpiperazin-1-yl)methyl)piperidin-1-yl)-1-oxoisoindolin-2-yl)piperidine-2,6-dione] | < 100 | – | < 100 | > 75 | 51 |
| CC1(C)CN(CC2CCN(c3ccc4c(c3)C(=O)N(C3CCC(=O)NC3=O)C4)CC2)CCN1C(=O)N1CCN2c3cc(-c4cc(F)cc(F)c4O)nnc3NC[C@H]2C1 (stereo partly drawn) [Example 22, 3-(6-(4-((4-((S)-2-(3,5-difluoro-2-hydroxyphenyl)-6,6a,7,8,9,10-hexahydro-5H-pyrazino[1′,2′:4,5]pyrazino[2,3-c]pyridazine-8-carbonyl)-3,3-dimethylpiperazin-1-yl)methyl)piperidin-1-yl)-1-oxoisoindolin-2-yl)piperidine-2,6-dione] | < 100 | 50 to 75 | < 100 | > 75 | – |
| CC1(C)CN(CC2CN(c3ccc4c(c3)C(=O)N(C3CCC(=O)NC3=O)C4)C2)CCN1C(=O)N1CCN2c3cc(-c4cc(F)cc(F)c4O)nnc3NC[C@H]2C1 (stereo partly drawn) [Example 23, 3-(6-(3-((4-((S)-2-(3,5-difluoro-2-hydroxyphenyl)-6,6a,7,8,9,10-hexahydro-5H-pyrazino[1′,2′:4,5]pyrazino[2,3-c]pyridazine-8-carbonyl)-3,3-dimethylpiperazin-1-yl)methyl)azetidin-1-yl)-1-oxoisoindolin-2-yl)piperidine-2,6-dione] | < 100 | < 50 | < 100 | > 75 | – |
| C[C@@H]1CN(CC2CN(c3ccc4c(c3)C(=O)N(C3CCC(=O)NC3=O)C4)C2)C[C@H](C)N1C(=O)N1C[C@@H]2CNc3nnc(-c4cc(F)cc(F)c4O)cc3N2C[C@@H]1C (stereo partly drawn) [Example 24, 3-(6-(3-(((3S,5R)-4-((6aS,9S)-2-(3,5-difluoro-2-hydroxyphenyl)-9-methyl-6,6a,7,8,9,10-hexahydro-5H-pyrazino[1′,2′:4,5]pyrazino[2,3-c]pyridazine-8-carbonyl)-3,5-dimethylpiperazin-1-yl)methyl)azetidin-1-yl)-1-oxoisoindolin-2-yl)piperidine-2,6-dione] | > 1000 | < 50 | < 100 | > 75 | – |
| C[C@H]1CN2c3cc(-c4cc(F)cc(F)c4O)nnc3NC[C@H]2CN1C(=O)N1CCN(CC2CCN(c3ccc4c(c3)C(=O)N(C3CCC(=O)NC3=O)C4)CC2)CC1(C)C (stereo partly drawn) [Example 25, 3-(6-(4-((4-((6aS,9S)-2-(3,5-difluoro-2-hydroxyphenyl)-9-methyl-6,6a,7,8,9,10-hexahydro-5H-pyrazino[1′,2′:4,5]pyrazino[2,3-c]pyridazine-8-carbonyl)-3,3-dimethylpiperazin-1-yl)methyl)piperidin-1-yl)-1-oxoisoindolin-2-yl)piperidine-2,6-dione] | < 100 | < 50 | < 100 | > 75 | – |
| C[C@@H]1CN(CC2CCN(c3ccc4c(c3)C(=O)N(C3CCC(=O)NC3=O)C4)CC2)C[C@H](C)N1C(=O)N1CCN2c3cc(-c4cccc(Cl)c4O)nnc3NCC2(C)C1 (stereo partly drawn) [Example 30, 3-(6-(4-(((3R,5S)-4-(2-(3-chloro-2-hydroxyphenyl)-6a-methyl-6,6a,7,8,9,10-hexahydro-5H-pyrazino[1′,2′:4,5]pyrazino[2,3-c]pyridazine-8-carbonyl)-3,5-dimethylpiperazin-1-yl)methyl)piperidin-1-yl)-1-oxoisoindolin-2-yl)piperidine-2,6-dione] | < 100 | 50 to 75 | < 100 | > 75 | – |
| C[C@@H]1CN(CC2CCN(c3ccc4c(c3)C(=O)N(C3CCC(=O)NC3=O)C4=O)CC2)C[C@H](C)N1C(=O)N1CCN2c3cc(-c4cc(F)cc(F)c4O)nnc3NCC2(C)C1 (stereo partly drawn) [Example 36, 5-(4-(((3S,5R)-4-(2-(3,5-difluoro-2-hydroxyphenyl)-6a-methyl-6,6a,7,8,9,10-hexahydro-5H-pyrazino[1′,2′:4,5]pyrazino[2,3-c]pyridazine-8-carbonyl)-3,5-dimethylpiperazin-1-yl)methyl)piperidin-1-yl)-2-(2,6-dioxopiperidin-3-yl)isoindoline-1,3-dione] | < 100 | > 75 | < 100 | > 75 | – |

Reference: patent publication US20230365576A1, “BRM Targeting Compounds And Associated Methods Of Use” (Prelude Therapeutics Incorporated, priority 2022, published 2023)
